Results from patent US20210308077A1, “COMBINATIONS INCLUDING BETA-ADRENORECEPTOR AGONISTS FOR TREATMENT OF PARKINSON`S DISEASE AND MOVEMENT DISORDERS” (The Brigham and Women`s Hospital, Inc., priority 2017, published 2021).

How the values were obtained:
[1] = test system: α-synuclein protein and mRNA in substantia nigra; test: Snca expression in substantia nigra, dose-finding mouse trial; assay type: in vivo; settings: 10 mg/kg intraperitoneal, 24 hours, P<0.05
Description: The clenbuterol pharmacokinetic (PK) study was done in wild-type C57BL/6J male mice by ChemPartner Co., LTD in Shanghai. The study was done with 4 groups of four mice; one control group and three treatment groups with clenbuterol administered via intraperitoneal injection at dosages of 1, 5 and 10 mg/kg once every 24 hours. Following completion of the administration schedule, blood samples were collected at various time points (e.g. 0.25, 2, 8, and 24 hours), from the four mice per group per time point (final time point of 24 hours post injection). Mice were sacrificed following each blood collection and brains were removed and snap frozen. […] Plasma and brain samples were analyzed by LC-MS/MS for compound concentration at each of three concentrations and at each time point. Standard pharmacokinetic parameters (e.g. AUClast, AUCINF, terminal elimination half-life (t1/2), clearance, volume of distribution, time at maximum observed plasma concentration, etc.) were determined in both plasma and brain tissueby WinNonlin V 6.2 statistics software (Pharsight Corporation, California, USA) using a non-compartmental model. […]
Protein lysis buffer containing 320 mM sucrose, 5 mM NaF, 1 mM Na3VO4, 10 mM Tris (pH 7.4), 1 mM EGTA, and 1 mM EDTA was used for mice brain tissue lysis. […] Total protein concentrations were determined by BCA assay (Thermo Scientific) according to the manufacturer's instructions. […]

[2] = test system: α-synuclein protein and SNCA mRNA; test: SNCA expression in SNCA-triplication iPSC-derived neuronal progenitor cells; assay type: cell-based, human; settings: SNCA-triplication NPCs, 20 μM
Description: The derivation and culture of the WIBR-IPS-αSyn^TRPLline has been described previously (27).
To initiate differentiation, iPSC colonies were pretreated for 30-60 min with 5 μM Y-27632, a ROCK inhibitor (Calbiochem). They were single cell-dissociated after 5-10 minute exposure to accutase (StemProAccutase; Life Technologies) and then re-suspended in neural base (NB) medium, which is DMEM/F12 (Gibco/Life Technologies) supplemented with 0.5% N2 and 1% B27 (Life Technologies). […]
Total RNA from flash-frozen mice brain tissue, rodent primary cells, human neuroblastoma cells and iPSC-derived neuronal cells was isolated using TRIzol® (Life Technologies) following the manufacturer's protocol. RNA concentration was measured using NanoDrop spectrophotometer (Thermo Fisher Scientific, Wilmington, De.). […] Quantitative PCR was performed using TaqMan Universal PCR Master Mix (Applied Biosystems) on an ABI 7900HT instrument (Applied Biosystems) as described previously (31). […] Expression values were analyzed using the comparative threshold cycle method (31). […]

CC(C)(C)NCC(O)c1cc(Cl)c(N)c(Cl)c1 (stereo not shown) [clenbuterol]
nigral α-synuclein mRNA levels [1]: significant reduction | nigral α-synuclein protein levels [1]: significant reduction | SNCA mRNA expression ([2]; 3 days, P<0.005): significantly reduced | endogenous α-synuclein protein ([2]; 4 days, P<0.05): significantly reduced
